Measured values from paper PMC3172881 (Cancer cell, 2011).
Values belong to the compound of their own block, whether it stands above or below them.

Legend:
[1] = tested on: mEP^Ephb2-LUC brain tumors; test: Orthotopic allograft efficacy study, bioluminescence and survival; type: in vivo, mouse; settings: for survival of mice harbouring mEP^Ephb2-LUC tumors / rate of mEP^Ephb2-LUC tumor growth: 5-FU 75 mg/kg i.v. once weekly, bortezomib 0.8 mg/kg i.v. twice weekly; for rate of mEP^Ephb2-LUC tumor growth: bioluminescence
[2] = tested on: subventricular zone (SVZ) of Prom1^+/C-L mice; test: In vivo NSC toxicity: ApoTag, DCX and LacZ; settings: for number of Prom1^+ cells in the SVZ / number of apoptotic cells in the SVZ: ±SEM; for number of apoptotic cells in the SVZ: ApoTag
[3] = 5-FU pharmacokinetics, tumor microdialysis and plasma; type: in vivo, mouse
[4] = Tolerability of 5-FU infusion via Alzet pumps; type: in vivo, mouse; settings: 13 mg/kg/hour via Alzet pumps; unacceptably toxic
IGF1R = test: Western blot of IGF1R signalling in mEP^Ephb2 cells stimulated with IGF2; type: cell-based, mouse
mEP^Ephb2 cells = test: HTS activity against ependymoma cells; type: cell-based, mouse; settings: result in words
[5] = tested on: mEP^Ephb2, mBT^NICD1, NSC^wt and NSC^null cells; type: cell-based, mouse; settings: for cell-selective activity class in HTS: class from average EC50 in each of four cell types, secondary screen

Compound: O=c1[nH]cc(F)c(=O)[nH]1 [5-FU, 5-fluorouracil]
survival of mice harbouring mEP^Ephb2-LUC tumors [1]: significantly prolonged
rate of mEP^Ephb2-LUC tumor growth [1]: halved
activity against mEP^Ephb2-LUC brain tumors ([1]; delivered subcutaneously via Alzet pumps): inactive
DCX^+ labelling in the SVZ ([2]; four weeks of therapy): returned to control levels
apoptotic labelling in the SVZ ([2]; four weeks of therapy): returned to control levels
area of DCX^+ neuroblast rests in the SVZ ([2]; two weeks of therapy): 2.2 μm^2 per μm ventricular surfac
number of Prom1^+ cells in the SVZ ([2]; two weeks of therapy): 35.1%
number of apoptotic cells in the SVZ ([2]; two weeks of therapy): 12.0±1.7
time the tumor concentration was maintained ([3]; 13 mg/kg/hour via Alzet pumps, ~10 μM): over 24 hours
time brain tumor concentration remained above 10μM ([3]; intravenous bolus 75 mg/kg): approximately 1 hour
peak concentration in brain tumors ([3]; intravenous bolus 75 mg/kg, microdialysis, ±79 S.D.): 800 µM
tumor drug levels ([3]; subcutaneous infusion 1.03 mg/kg/hour): failed to generate detectable tumor drug levels
weight loss [4]: ≥ 20%

Compound: COc1cc2c(cc1Nc1nc(Nc3ccsc3C(N)=O)c3cc[nH]c3n1)N(C(=O)CN(C)C)CCC2 [GSK2110236A]
IGF1R and its downstream signal (IGF1R): blocked
activity against mEP^Ephb2 cells in HTS (mEP^Ephb2 cells): potent inhibitor

Compound: C/C=C(\C)C(=O)O[C@H]1[C@H](OC(C)=O)[C@@]2(CO)C(CC1(C)C)C1=CC[C@@H]3[C@@]4(C)CC[C@H](O[C@@H]5O[C@H](C(=O)O)[C@@H](O[C@@H]6O[C@H](CO)[C@@H](O)[C@H](O)[C@H]6O)[C@H](O)[C@H]5O[C@@H]5O[C@H](CO)[C@@H](O)[C@H](O)[C@H]5O)[C@H](CO)C4CC[C@@]3(C)[C@@]1(C)C[C@H]2O (stereo partly drawn) [beta-escin]
cell-selective activity class in HTS [5]: ependymoma selective

Compound: CC(C)C[C@H](NC(=O)[C@H](Cc1ccccc1)NC(=O)c1cnccn1)B(O)O [bortezomib]
survival of mice harbouring mEP^Ephb2-LUC tumors [1]: significantly prolonged
rate of mEP^Ephb2-LUC tumor growth [1]: halved
DCX^+ labelling in the SVZ ([2]; four weeks of therapy): returned to control levels
Prom1^+ cell numbers in the SVZ relative to controls ([2]; four weeks of therapy): > 2.5 times
apoptotic labelling in the SVZ ([2]; four weeks of therapy): returned to control levels
number of Prom1^+ cells in the SVZ ([2]; four weeks of therapy): 57.8%
area of DCX^+ neuroblast rests in the SVZ ([2]; two weeks of therapy): 6.0 μm^2 per μm ventricular surfac
number of Prom1^+ cells in the SVZ ([2]; two weeks of therapy): 39.2%
number of apoptotic cells in the SVZ ([2]; two weeks of therapy): 22.2±5.1
activity against mEP^Ephb2 cells in HTS (mEP^Ephb2 cells): highly potent

Compound: N.N.O=C([O-])C1(C(=O)[O-])CCC1.[Pt+2] [carboplatin]
activity against mEP^Ephb2 cells in HTS (mEP^Ephb2 cells): Neither carboplatin nor irinotecan were active

Compound: CCc1c2c(nc3ccc(OC(=O)N4CCC(N5CCCCC5)CC4)cc13)-c1cc3c(c(=O)n1C2)COC(=O)[C@]3(O)CC [irinotecan]
activity against mEP^Ephb2 cells in HTS (mEP^Ephb2 cells): Neither carboplatin nor irinotecan were active

Compound: CS(=O)(=O)CCNCc1ccc(-c2ccc3ncnc(Nc4ccc(OCc5cccc(F)c5)c(Cl)c4)c3c2)o1 [lapatinib]
activity against mEP^Ephb2 cells in HTS (mEP^Ephb2 cells): inactive

EC50 ([5]; Mus musculus, 96 h): 200 to 700 nM
Compound: CC[C@@]1(O)C(=O)OCc2c1cc1n(c2=O)Cc2cc3c(CN(C)C)c(O)ccc3nc2-1 [topotecan]
cell-selective activity class in HTS [5]: equipotent
